Data set [1] relates to neutrophils isolated from the peripheral blood of healthy individuals. Nature of the data set: Superoxide production amount of PMA-stimulated neutrophils with PBS solutions stored for 10 days vs immediately after preparation. Format: cell-based, human. The conditions noted are these: PBS solution stored for 10 days vs immediately after preparation; 0, 6.25, 12.5, 25, 50, 100 or 20 μmol/l; FIG. 4. The protocol: First, ED2AP, BisEp-C3, edaravone, BisEp-C1, or BisEp-C1 (H2) was added to a neutrophil of 4×10^5 cells per sample so as to achieve a predetermined concentration (0, 12.5, 25, 50, 100, or 200 μmol/l, or 0, 125, 250, 500, 1250, 2500, or 5000 μmol/l) with 5 μmol of CLA, and then the cell suspension was seeded in flat-bottomed 96-well plates. The volume of the suspension was 200 μl/well, and phenol red free Ca+, Mg+ HBSS was used as the solution. In addition, the neutrophil was stimulated by adding PMA so as to achieve a concentration of 100 ng/ml. After the stimulation, a plate reader (Envision 2104 Multilabel Reader, produced by Perkin Elmer Co., Ltd.) was used to measure the chemiluminescence value over time for 30 minutes with the PMA stimulation time being a reference. The measurement interval was 30 seconds. The sum of the chemiluminescence values obtained every 30 seconds for 30 minutes was taken as the superoxide production amount. In addition, as a control, the superoxide production amount was measured in the same manner except that each compound was not added. The relative value of the superoxide production amount when each compound was added was calculated with the superoxide production amount of the control being 100.
PBS solutions of ED2AP, BisEp-C3, and edaravone were prepared in the same manner as in Example 2 and stored for 10 days. The superoxide production amount was calculated in the same manner as in Example 4 except that the PBS solution after storage was added instead of ED2AP, BisEp-C3, edaravone, BisEp-C1 or BisEp-C1 (H2) so as to achieve a predetermined concentration (0, 6.25, 12.5, 25, 50, 100 or 20 μmol/l) of ED2AP, BisEp-C3 or edaravone. Further, PBS solutions of ED2AP, BisEp-C3, and edaravone were prepared in the same manner as in Example 2, and the superoxide production amount was calculated in the same manner except that the PBS solution immediately after preparation was used. Then, the relative value of the superoxide production amount of each sample was calculated with the superoxide production amount of the sample of 0 μmol/l being 100.

The nature of data set [2]: Storage stability in pH7.4-PBS or pure water at 37° C. protected from light, residual rate by HPLC. Format: physicochemical. The conditions noted are these: 200 μmol/l; for Residual rate (%) After 1 week / Residual rate (%) After 2 weeks: 37° C., protected from light; for Residual rate (%) Initial concentration: initial concentration (reference 100%). The protocol:
The storage stability of edaravone, EMPO, ED2AP, and BisEp-C3 of the following formula (A) were examined. Specifically, edaravone, EMPO, ED2AP, and BisEp-C3 were dissolved in pH7.4-PBS or pure water so as to have a final concentration of 200 μmol/l to prepare dissolved solutions of these compounds. When the compounds were difficult to be dissolved, they were dissolved in an ultrasonic cleaner with warm water at 40° C.
Under the measurement conditions for HPLC described below, the initial concentration was quantified, and then each solution was stored in an oven, which was protected from light, at 37° C., and quantified under the same measurement conditions after 1 week and 2 weeks, to determine residual rate (%) with the initial concentration (100%) being a reference.
Measurement conditions for HPLC
PDA detector (Format: SPD-M20A) HPLC Assay Conditions:
Column: Atlantis dC18 5 μm (250×4.6 mm I.D.; produced by Waters)
Column temperature: 45° C.
Detection method: UV (254 nm)
Eluate A: pH3 buffer solution (adjusted to pH3 by adding phosphoric acid to 0.05M KH2PO4 aqueous solution)/methanol=90/10

For data set [3], the system named is rat neuroid cells B50. Nature of the data set: Alleviation of singlet oxygen (Rose Bengal + G-LED) cytotoxicity, Alamar Blue fluorescence. The conditions noted are these: for recovery of the fluorescence intensity (cellular activity): 0, 12.5, 25, 50, or 100 μmol/l, 200 nmol/l RB + G-LED 5 minutes, FIG. 3; for cytoprotective function compared with edaravone: B50 cells, RB + G-LED singlet oxygen. The class given is cell-based. The protocol: Edaravone, ED2AP and BisEp-C3 were examined whether they had the function of alleviating neuronopathy. Specifically, singlet oxygen was generated by combining Rose Bengal (RB), which is a sensitizer, with green light (G-LED), and the function of alleviating the cytotoxicity of the generated singlet oxygen was examined with the cellular activity being an indicator.
First, rat neuroid cells B50 were cultured in 12-well dishes at 2×10^5 cells/well (medium: RPMI-1640 medium containing 5% FCS) overnight. After the culturing, the medium of each well was replaced with HBSS (1000 μl/well; phenol red free Ca+, Mg+) containing 200 nmol/l RB and edaravone, ED2AP, or BisEp-C3 having a predetermined concentration (0, 12.5, 25, 50, or 100 μmol/l). The dish was then irradiated with G-LED for 5 minutes to generate singlet oxygen. Thereafter, the medium of each well was replaced with 1000 μl of HBSS and Alamar Blue was added. The dish was then allowed to react for about 2 hours in an incubator at 37° C. and 5% CO2. After the reaction, fluorescence intensity (excitation wavelength: λ-560 nm, fluorescence wavelength: λ-595 nm) was measured with a plate reader (infinite200, Tecan Trading AG). In this experimental system, the higher the cellular activity, the more Alamar Blue is taken up and the higher the fluorescence intensity. As a control, fluorescence intensity was measured in the same manner except that sodium azide (Azide, NaN3) was added instead of the compounds so as to achieve a concentration of 4 mmol/l. As a negative control (NC), fluorescence intensity was measured in the same manner except that RB was not added. The relative value of the fluorescence intensity in the sample to which each compound was added was calculated with the fluorescence intensity of the negative control being 100.
A general note: Resazurin is reduced to fluorescent resorufin, in cell work by metabolically active cells.

Data set [4] has as its system rat neuroid cells B50. Nature of the data set: Toxicity evaluation, cell viability by Alamar Blue after 24 hours. Format: cell-based. To be noted: 12.5, 25, 50, 100, or 200 μmol/l, FIG. 5. On the procedure:
Rat neuroid cells B50 were seeded in 12-well plates and then cultured. Edaravone (RC), ED2AP, or BisEp-C3 was added to each well so as to achieve a predetermined concentration (12.5, 25, 50, 100, or 200 μmol/l), and then incubated for 24 hours at 37° C. and 5% CO2. Cell viability in each well after the culture was measured using Alamar Blue.

Consider two compounds from US20220110916A1, “Antioxidant and Use Thereof” (Bioradical Research Institute Corp., priority 2019, published 2022).

Molecules are shown by their SMILES.

`CC1=NN(c2ccccc2)C(=O)/C1=C/C=C/c1c(C)nn(-c2ccccc2)c1O` (racemic) [ED2AP, 2,4-dihydro-4-[3-(5-hydroxy-3-methyl-1-phenyl-1H-pyrazol-4-yl)-2-propen-1-ylidene]-5-methyl-2-phenyl-3H-pyrazol-3-one]: in data set [1], the “superoxide-eliminating ability after storage” value is listed as “maintained the superoxide-eliminating ability equivalent to that immediately after preparation even after storage”. In addition, in data set [2] (Pure water), the “Residual rate (%) After 1 week” value was determined as 96.1%, the “Residual rate (%) After 2 weeks” value is listed as 89.8% and the “Residual rate (%) Initial concentration” value stood at 100%. Further, in data set [2] (pH 7.4-PBS), the “Residual rate (%) After 1 week” value is 96.2%, the “Residual rate (%) After 2 weeks” value was 91.3% and the “Residual rate (%) Initial concentration” value was found to be 100%. In data set [3], the “recovery of the fluorescence intensity (cellular activity)” value was “recovered in a concentration-dependent manner” and the “cytoprotective function compared with edaravone” value was “higher than that of edaravone”. For the same compound, the “cytotoxicity (cell viability)” value in data set [4] is reported as “not cytotoxic at any concentration”.
For `CCN1N=C(C)/C(=C\C=C\c2c(C)nn(CC)c2O)C1=O` (racemic) [BisEp-C3, 2,4-dihydro-4-[3-(1-ethyl-5-hydroxy-3-methyl-1H-pyrazol-4-yl)-2-propen-1-ylidene]-2-ethyl-5-methyl-3H-pyrazol-3-one], in data set [1], the “superoxide-eliminating ability after storage” value is listed as “maintained the superoxide-eliminating ability equivalent to that immediately after preparation even after storage”. Besides, in data set [2] (Pure water), the “Residual rate (%) After 1 week” value is on record as 99.4%, the “Residual rate (%) After 2 weeks” value is reported as 88.5% and the “Residual rate (%) Initial concentration” value is 100%. In data set [2] (pH 7.4-PBS), the “Residual rate (%) After 1 week” value is listed as 98.7%, the “Residual rate (%) After 2 weeks” value came to 93.6% and the “Residual rate (%) Initial concentration” value came to 100%. Also, in data set [3], the “recovery of the fluorescence intensity (cellular activity)” value is “recovered in a concentration-dependent manner” and the “cytoprotective function compared with edaravone” value was “higher than that of edaravone”. The “cytotoxicity (cell viability)” value in data set [4] was “not cytotoxic at any concentration”.
